In PubChem BioAssay AID1963834 (Molecular Pharmacology Branch, DTP, NCI, 2024):
pIC50: −log10 of the molar value.

Tested on: 873145-292-R-J1-PDC complex spheroid viability
Assay: Anticancer human tumor 873145-292-R-J1-PDC patient-derived renal clear cell carcinoma cell line growth inhibition [POLQ]
Settings: for pIC50: curve of first compound; for viability, T/C: stronger effect = lower value
Summary of the method: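 Complex spheroid viability model combining PDC tumour cells with endothelial (HUVEC) and MSC stromal cells. Novobiocin, ART-558 or RP6685 were tested singly and in combination with standard and investigational anticancer drugs. Each was titrated in half-log steps from near clinical Cmax, or from 10 microM where Cmax was unknown.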

[1] = second compound 0.0316 µM, first compound 0.0316 µM
[2] = second compound 0.0316 µM, first compound 0.1 µM
[3] = second compound 0.0316 µM, first compound 0.316 µM
[4] = second compound 0.0316 µM, first compound 1 µM
[5] = second compound 0.0316 µM, first compound 3.16 µM
[6] = second compound 0.0316 µM, first compound 10 µM
[7] = second compound 0.1 µM, first compound 0.0316 µM
[8] = second compound 0.1 µM, first compound 0.1 µM
[9] = second compound 0.1 µM, first compound 0.316 µM
[10] = second compound 0.1 µM, first compound 1 µM
[11] = second compound 0.1 µM, first compound 3.16 µM
[12] = second compound 0.1 µM, first compound 10 µM
[13] = second compound 0.316 µM, first compound 0.0316 µM
[14] = second compound 0.316 µM, first compound 0.1 µM
[15] = second compound 0.316 µM, first compound 0.316 µM
[16] = second compound 0.316 µM, first compound 1 µM
[17] = second compound 0.316 µM, first compound 3.16 µM
[18] = second compound 0.316 µM, first compound 10 µM
[19] = second compound 1 µM, first compound 0.0316 µM
[20] = second compound 1 µM, first compound 0.1 µM
[21] = second compound 1 µM, first compound 0.316 µM
[22] = second compound 1 µM, first compound 1 µM
[23] = second compound 1 µM, first compound 3.16 µM
[24] = second compound 1 µM, first compound 10 µM
[25] = second compound 3.16 µM, first compound 0.0316 µM
[26] = second compound 3.16 µM, first compound 0.1 µM
[27] = second compound 3.16 µM, first compound 0.316 µM
[28] = second compound 3.16 µM, first compound 1 µM
[29] = second compound 3.16 µM, first compound 3.16 µM
[30] = second compound 3.16 µM, first compound 10 µM
[31] = second compound 10 µM, first compound 0.0316 µM
[32] = second compound 10 µM, first compound 0.1 µM
[33] = second compound 10 µM, first compound 0.316 µM
[34] = second compound 10 µM, first compound 1 µM
[35] = second compound 10 µM, first compound 3.16 µM
[36] = second compound 10 µM, first compound 10 µM
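Further: spheroids exposed to compounds for 7 days before viability readout.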
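Wherever viability, T/C is given: luminescence signal used as surrogate for viable cell content; 100% = DMSO vehicle control viability.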

CC1COCCN1c1cc(C2(O)CC3CCC(C2)O3)c2cnn(-c3ccn[nH]3)c2n1 (centres undefined) + Nc1ccc(C#CCN(C(=O)Cc2ncc(C(F)(F)F)cc2C(F)(F)F)c2ccc(F)cc2)nn1
pIC50 (second compound 0.0316 µM): 5.62 | pIC50 (second compound 0.1 µM): 5.96 | pIC50 (second compound 0.316 µM): < 5.00 | pIC50 (second compound 1 µM): 5.77 | pIC50 (second compound 3.16 µM): < 5.00 | pIC50 (second compound 10 µM): < 5.00 | viability, T/C [1]: 101% | viability, T/C [2]: 84% | viability, T/C [3]: 61.3% | viability, T/C [4]: 52.8% | viability, T/C [5]: 50.3% | viability, T/C [6]: 47.6% | viability, T/C [7]: 111% | viability, T/C [8]: 81.9% | viability, T/C [9]: 61.5% | viability, T/C [10]: 48.1% | viability, T/C [11]: 49.8% | viability, T/C [12]: 40.9% | viability, T/C [13]: 94.3% | viability, T/C [14]: 79.4% | viability, T/C [15]: 54.9% | viability, T/C [16]: 50.4% | viability, T/C [17]: 59.4% | viability, T/C [18]: 45.6% | viability, T/C [19]: 89.2% | viability, T/C [20]: 72.2% | viability, T/C [21]: 59.9% | viability, T/C [22]: 50.2% | viability, T/C [23]: 51.2% | viability, T/C [24]: 42.4% | viability, T/C [25]: 89.2% | viability, T/C [26]: 81% | viability, T/C [27]: 67.5% | viability, T/C [28]: 53.2% | viability, T/C [29]: 56.8% | viability, T/C [30]: 46.9% | viability, T/C [31]: 99.3% | viability, T/C [32]: 94.5% | viability, T/C [33]: 66% | viability, T/C [34]: 57.1% | viability, T/C [35]: 55.3% | viability, T/C [36]: 48.2%

O=C(Nc1ccc(O)c(NS(=O)(=O)c2ccc(F)cc2)c1)c1ccc(-c2ccccc2)cc1 + Nc1ccc(C#CCN(C(=O)Cc2ncc(C(F)(F)F)cc2C(F)(F)F)c2ccc(F)cc2)nn1
pIC50 (second compound 0.0316 µM): < 5.00 | pIC50 (second compound 0.1 µM): < 5.00 | pIC50 (second compound 0.316 µM): < 5.00 | pIC50 (second compound 1 µM): < 5.00 | pIC50 (second compound 3.16 µM): < 5.00 | pIC50 (second compound 10 µM): < 5.00 | viability, T/C [1]: 98% | viability, T/C [2]: 112% | viability, T/C [3]: 113% | viability, T/C [4]: 96.3% | viability, T/C [5]: 110% | viability, T/C [6]: 102% | viability, T/C [7]: 113% | viability, T/C [8]: 113% | viability, T/C [9]: 95.9% | viability, T/C [10]: 101% | viability, T/C [11]: 107% | viability, T/C [12]: 98.9% | viability, T/C [13]: 102% | viability, T/C [14]: 113% | viability, T/C [15]: 114% | viability, T/C [16]: 108% | viability, T/C [17]: 113% | viability, T/C [18]: 98.3% | viability, T/C [19]: 112% | viability, T/C [20]: 100% | viability, T/C [21]: 101% | viability, T/C [22]: 98.2% | viability, T/C [23]: 100% | viability, T/C [24]: 105% | viability, T/C [25]: 113% | viability, T/C [26]: 103% | viability, T/C [27]: 109% | viability, T/C [28]: 106% | viability, T/C [29]: 98.7% | viability, T/C [30]: 106% | viability, T/C [31]: 106% | viability, T/C [32]: 112% | viability, T/C [33]: 105% | viability, T/C [34]: 117% | viability, T/C [35]: 112% | viability, T/C [36]: 93.9%
